Results as given in publication PMC8752837, “Structural basis of BAK activation in mitochondrial apoptosis initiation” (Nature Communications, 2022).
Read-outs that look alike come from different tables or passages of the source. Marks after values point to notes of the source that are not given here.

Legend:
Human BAK-∆TM-His6 (BAK) = molecular target: T1, Human BAK-∆TM-His6 (BAK) (Homo sapiens, UniProt Q16611); test: Liposome permeabilization assay (ANTS/DPX dye release from LUVs): activation of WT BAK by BH3 peptides;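 as to AUC for Experiment-2 (Mean): traces normalized between buffer minimum and 3% CHAPS maximum fluorescence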;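 as to AUC for Experiment-3 (Mean): traces normalized between buffer minimum and 3% CHAPS maximum fluorescence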; assay type: biochemical; set-up: AUC for Experiment-2 (Mean) / AUC for Experiment-3 (Mean) / AUC for Experiment-1 (Mean):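 traces normalized between buffer minimum and 3% CHAPS maximum fluorescence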; settings: for AUC for Experiment-1 (Mean) / AUC for Experiment-2 (Mean) / AUC for Experiment-3 (Mean): AUC 0-88 mins of liposome permeabilization; for AUC for Experiment-1 (Mean): Experiment-1, mean of N replicates; for AUC for Experiment-2 (Mean): Experiment-2, mean of N replicates; for AUC for Experiment-3 (Mean): Experiment-3, mean of N replicates; for EC50: Fig. 4e, AUC vs peptide dose (Suppl. Fig. 6b), n = 2 experiments each of n = 3 technical replicates, read-out: EC50 LP; for EC50 / direct BAK activation compared to WT BID BH3: 50 nM BAK; for direct BAK activation compared to WT BID BH3: liposome permeabilization, Fig. 4c, e
T1 construct: C-terminus truncated recombinant human BAK containing C-terminal 6× histidine tag (MEAS-BAK); made in house; host or cells: E. coli T7 Express pLac I/Y
T1 sequence (Q16611 1-186 limits assumed): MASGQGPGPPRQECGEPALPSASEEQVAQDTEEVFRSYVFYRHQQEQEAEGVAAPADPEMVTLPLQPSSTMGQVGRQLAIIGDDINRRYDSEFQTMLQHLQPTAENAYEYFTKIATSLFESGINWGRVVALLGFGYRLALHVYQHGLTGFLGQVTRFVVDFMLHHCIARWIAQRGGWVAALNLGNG
Method: We performed liposome permeabilization assays as previously described[43]–[46]. […] We mixed the lipid film in ANTS/DPX solution by vortexing and sonication (~15 min) followed by extrusion through polycarbonate membrane of 2 μm pore size (Avanti Polar lipids) to generate homogenous large unilamellar vesicles (LUVs). We separated LUVs from free ANTS/DPX by S500 size exclusion chromatography and stored them at 4 °C in the dark. We prepared peptide and protein dilutions in 96-well black flat bottom plates (Costar) kept on ice. […] We quantified liposome permabilization by integrating area under curve (AUC) of normalized traces based on the Simpson’s equation, and analyzed that data in Excel and GraphPad Prism. AUC measurements reflect the kinetic and extent of liposome permeabilization and provide quantitative means for comparison between different experimental conditions (e.g., BAK mutants with gross or partial variation in activity).

GST-BAK = molecular target: T2, GST-BAK (Homo sapiens, UniProt Q16611); test: Competitive fluorescence polarization assay (displacement of BID BH3 SAHB-F); assay type: binding
T2 construct: made in house
T2 sequence (Q16611 1-211): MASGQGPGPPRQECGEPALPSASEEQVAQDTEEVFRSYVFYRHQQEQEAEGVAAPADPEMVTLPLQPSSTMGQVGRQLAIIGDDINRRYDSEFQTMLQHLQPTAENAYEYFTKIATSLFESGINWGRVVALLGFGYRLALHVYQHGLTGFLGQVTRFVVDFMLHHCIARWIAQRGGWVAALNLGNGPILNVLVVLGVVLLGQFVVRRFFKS
Source text: We also tested the monosubstituted peptides in competitive fluorescence polarization (FP) binding assays, which measure displacement from GST-BAK of BID BH3 stabilized alpha helix of BCL-2 proteins (SAHB) C-terminally tagged with fluorescein and thus informs on peptide binding affinity.
We carried out fluorescence polarization assays, measuring the displacement of the fluorescent peptide BID BH3 SAHB-F from GST-BAK, in 384-well Greiner black polystyrene plates with flat bottom (Sigma-Aldrich). Master mix consisted of 50 mM Tris-HCl pH 7.5, 50 mM KCl, 0.1 mg/mL BSA, 2 mM DTT, 0.005% Tween-20, 10 nM BID BH3 SAHB-F, and 1 µM GST-BAK. We pin transferred peptides using Biomek FX (Beckman Coulter Life Sciences, IN) to achieve final concentration of 500−0.2 µM in 20 µL final volume. We gently centrifuged plates to remove air bubbles for 1 min at 1000 rpm, and incubated them for 60 min at RT. […] Free peptide controls in each plate consisted of only BID BH3 SAHB-F and bound peptide controls containing BID BH3 SAHB-F + GST-BAK. We derived Z’-values using the equation [1 − 3(stdev^L + stdev^H)]/(average^H − average^L), where L is the free peptide control and H is the bound peptide control. […] We processed and visualized data using the software Robust Investigation of Screening Experiments (RISE) developed in house in the Pipeline Pilot platform (Accelrys, v.8.5.0). We performed at least three independent dose-response experiments for each peptide. We estimated IC50 values in RISE and GraphPad Prism v.8.0a.

[1] = competitive FP, mean of the experiments (replicated 4-9 times), read-out: IC50 Mean
[2] = displacement of 10 nM BID BH3 SAHB-fluorescein from 1 µM GST-BAK, peptide 500−0.2 µM, 60 min RT, mean ± SD, n = 9 experiments, read-out: IC50 FP

| Compound | AUC for Experiment-1 (Mean) (Human BAK-∆TM-His6 (BAK); 1 μM peptide + 50 nM BAK) | AUC for Experiment-2 (Mean) (Human BAK-∆TM-His6 (BAK); 1 μM peptide + 50 nM BAK) | AUC for Experiment-3 (Mean) (Human BAK-∆TM-His6 (BAK); 1 μM peptide + 50 nM BAK) | AUC for Experiment-1 (Mean) (Human BAK-∆TM-His6 (BAK); 50 μM peptide + 50 nM BAK) | AUC for Experiment-2 (Mean) (Human BAK-∆TM-His6 (BAK); 50 μM peptide + 50 nM BAK) | AUC for Experiment-3 (Mean) (Human BAK-∆TM-His6 (BAK); 50 μM peptide + 50 nM BAK) | EC50 (Human BAK-∆TM-His6 (BAK)) [µM] | IC50 (GST-BAK; competitive FP, Experiment-1) [µM] | IC50 (GST-BAK; competitive FP, Experiment-2) [µM] | IC50 (GST-BAK; competitive FP, Experiment-3) [µM] | IC50 (GST-BAK; competitive FP, Experiment-4) [µM] | IC50 (GST-BAK; competitive FP, Experiment-5) [µM] | IC50 (GST-BAK; competitive FP, Experiment-6) [µM] | IC50 (GST-BAK; competitive FP, Experiment-7) [µM] | IC50 (GST-BAK; competitive FP, Experiment-8) [µM] | IC50 (GST-BAK; competitive FP, Experiment-9) [µM] | IC50 (GST-BAK; [1]) [µM] | IC50 (GST-BAK; [2]) [µM] | direct BAK activation compared to WT BID BH3 (Human BAK-∆TM-His6 (BAK)) |
| --- | --- | --- | --- | --- | --- | --- | --- | --- | --- | --- | --- | --- | --- | --- | --- | --- | --- | --- | --- |
| Ac-EDIIRNIARHFAQVGDSMDRSI-NH2 [F(2)] | 10.629 | 6.9165 | 10.58 | 9.2417 | 6.0451 | 8.2141 | 0.29 ± 0.0426 |  |  |  |  |  |  |  |  |  |  |  |  |
| Ac-EDIIRNIARHLAQMGDSMDRSI-NH2 [M(3)] | 20.936 | 21.86 | 19.004 | 18.852 | 17.743 | 12.625 | 0.114 ± 0.0225 | 5.395 | 4.243 | 5.717 | 4.044 | 4.59 | 4.39 | 3.925 | 4.319 | 4.861 | 4.6 |  | gain in direct BAK activation compared to WT BID BH3 |
| Ac-EDIIRNIARHLAQVGDSYDRSI-NH2 [Y(4)] | 22.669 | 26.226 | 23.05 | 21.941 | 27.175 | 24.539 | 0.213 ± 0.0082 |  |  |  |  |  |  |  |  |  |  | 6.9 ± 5 | gain in direct BAK activation compared to WT BID BH3 |
| Ac-EDIIRNIARHLAQWGDSMDRSI-NH2 [W(3)] | 14.061 | 9.0873 | 8.9347 | 8.5044 | 6.7192 | 7.8089 | 0.163 ± 0.0053 | 7.12 | 5.471 | 7.795 | 5.632 | 5.62 | 7.05 | 5.661 | 7.109 | 8.02 | 6.6 |  | less direct BAK activation compared to WT BID BH3 |
| Ac-EDIIRNIARHLAQYGDSMDRSI-NH2 [Y(3)] | 14.1 | 10.652 | 12.187 | 18.672 | 10.496 | 13.717 | 0.372 ± 0.116 |  |  |  |  |  |  |  |  |  |  | 6.2 ± 1.5 |  |
| Ac-EDIIRNIARHWAQVGDSMDRSI-NH2 [W(2)] | 4.9093 | 3.613 | 3.7546 | 2.3973 | 4.6314 | 0.7562* | 1.08 ± 0.453 |  |  |  |  |  |  |  |  |  |  |  | less direct BAK activation compared to WT BID BH3 |
| Ac-EDIIRNIARHYAQVGDSMDRSI-NH2 [Y(2)] | 4.2367 | 5.3994 | 3.7484 | 8.0372 | 6.4388 | 4.7986 | 1.21 ± 0.696 |  |  |  |  |  |  |  |  |  |  |  | less direct BAK activation compared to WT BID BH3 |

More lines, main results first:

| AUC for Experiment-1 (Mean) (Human BAK-∆TM-His6 (BAK); 1 μM peptide + 50 nM BAK) | AUC for Experiment-2 (Mean) (Human BAK-∆TM-His6 (BAK); 1 μM peptide + 50 nM BAK) | AUC for Experiment-3 (Mean) (Human BAK-∆TM-His6 (BAK); 1 μM peptide + 50 nM BAK) | AUC for Experiment-1 (Mean) (Human BAK-∆TM-His6 (BAK); 50 μM peptide + 50 nM BAK) | AUC for Experiment-2 (Mean) (Human BAK-∆TM-His6 (BAK); 50 μM peptide + 50 nM BAK) | AUC for Experiment-3 (Mean) (Human BAK-∆TM-His6 (BAK); 50 μM peptide + 50 nM BAK) | EC50 (Human BAK-∆TM-His6 (BAK)) [µM] | IC50 (GST-BAK; competitive FP, Experiment-1) [µM] | IC50 (GST-BAK; competitive FP, Experiment-2) [µM] | IC50 (GST-BAK; competitive FP, Experiment-3) [µM] | IC50 (GST-BAK; competitive FP, Experiment-4) [µM] | IC50 (GST-BAK; competitive FP, Experiment-5) [µM] | IC50 (GST-BAK; competitive FP, Experiment-6) [µM] | IC50 (GST-BAK; competitive FP, Experiment-7) [µM] | IC50 (GST-BAK; competitive FP, Experiment-8) [µM] | IC50 (GST-BAK; competitive FP, Experiment-9) [µM] | IC50 (GST-BAK; [1]) [µM] | IC50 (GST-BAK; [2]) [µM] | Compound | direct BAK activation compared to WT BID BH3 (Human BAK-∆TM-His6 (BAK)) |
| --- | --- | --- | --- | --- | --- | --- | --- | --- | --- | --- | --- | --- | --- | --- | --- | --- | --- | --- | --- |
| 15.613 | 13.293 | 17.537 | 10.056 | 8.1041 | 9.4463 | 0.11 ± 0.0577 | 10.88 | 9.859 | 9.959 | 6.417 | 8.231 | 7.397 | 10.36 | 8.244 | 7.774 | 8.8 |  | CC[C@H](C)[C@H](NC(=O)[C@H](CC(N)=O)NC(=O)[C@H](CCCNC(=N)N)NC(=O)[C@@H](NC(=O)[C@@H](NC(=O)[C@H](CC(=O)O)NC(=O)[C@H](CCC(=O)O)NC(C)=O)[C@@H](C)CC)[C@@H](C)CC)C(=O)N[C@@H](C)C(=O)N[C@@H](CCCNC(=N)N)C(=O)N[C@@H](Cc1c[nH]cn1)C(=O)N[C@@H](CC(C)C)C(=O)N[C@@H](C)C(=O)N[C@@H](CCC(N)=O)C(=O)N[C@H](C(=O)NCC(=O)N[C@@H](CC(=O)O)C(=O)N[C@@H](CO)C(=O)N[C@@H](CCSC)C(=O)N[C@@H](CC(=O)O)C(=O)N[C@@H](CCCNC(=N)N)C(=O)N[C@@H](CO)C(=O)N[C@@H](Cc1c[nH]c2ccccc12)C(N)=O)C(C)C [W(5)] |  |
| 18.713 | 17.421 | 16.388 | 17.267 | 18.39 | 17.889 | 0.11 ± 0.0161 |  |  |  |  |  |  |  |  |  |  | 11.3 ± 3.9 | Ac-EDIIRNIARHLAQFGDSMDRSI-NH2 [F(3)] | gain in direct BAK activation compared to WT BID BH3 |
| 9.5438 | 9.663 | 8.9802 | 10.729 | 10.153 | 6.338 | 0.229 ± 0.0111 |  |  |  |  |  |  |  |  |  |  | 11.9 ± 3.7 | Ac-EDIIRNIARHLAQVGDSFDRSI-NH2 [F(4)] | less direct BAK activation compared to WT BID BH3 |
| 16.565 | 21.49 | 16.942 | 21.822 | 26.263 | 21.192 | 0.264 ± 0.0091 |  |  |  |  |  |  |  |  |  |  | 11.5 ± 7.5 | Ac-EDIIRNIARHLAQVGDSWDRSI-NH2 [W(4)] | gain in direct BAK activation compared to WT BID BH3 |
| 8.056 | 3.548 | 5.055 | 8.1746 | 3.897 | 7.008 | 0.366 ± 0.0892 |  |  |  |  |  |  |  |  |  |  |  | Ac-EDIIRNIARHMAQVGDSMDRSI-NH2 [M(2)] |  |
| 5.265 | 7.491 | 5.218 | 7.873 | 8.991 | 6.529 | 1.7 ± 0.446 |  |  |  |  |  |  |  |  |  |  |  | Ac-EDIIRNWARHLAQVGDSMDRSI-NH2 [W(1)] | less direct BAK activation compared to WT BID BH3 |
